Experimental data: US8106055B2, “Substituted amide compounds” (Gruenenthal GmbH, priority 2007, dated 2012)

What was measured:
human μ opiate receptor = biological target: T1, human μ opiate receptor (Homo sapiens, UniProt P35372); test: Affinity for the human μ opiate receptor ([3H]-naloxone displacement, CHO-K1 receptor membrane preparation, SPA); format: binding; conditions: 1.5 h, Table 3, to be read in the same way as Table 1; test concentration 1 μM; read-out: μ
T1 construct: purchased PerkinElmer Life Sciences, Zaventem, Belgium RB-HOM; host or cells: CHO-K1 cells (membrane preparation)
T1 sequence (P35372 whole entry): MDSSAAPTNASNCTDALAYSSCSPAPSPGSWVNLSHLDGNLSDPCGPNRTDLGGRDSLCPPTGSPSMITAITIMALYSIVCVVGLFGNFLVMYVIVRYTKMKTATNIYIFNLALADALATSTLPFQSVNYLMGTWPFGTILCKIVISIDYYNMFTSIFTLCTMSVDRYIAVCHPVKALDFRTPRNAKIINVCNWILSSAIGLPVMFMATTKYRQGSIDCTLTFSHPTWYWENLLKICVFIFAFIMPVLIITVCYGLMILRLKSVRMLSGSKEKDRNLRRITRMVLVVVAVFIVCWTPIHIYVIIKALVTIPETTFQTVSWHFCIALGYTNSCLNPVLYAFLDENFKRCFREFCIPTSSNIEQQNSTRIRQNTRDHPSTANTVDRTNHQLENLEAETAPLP
Summary of the method: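 At 1 μmol/l, compounds were scored for % displacement of 1 nmol/l [3H]-naloxone from CHO-K1-expressed human μ opiate receptor in a homogeneous SPA format (90 min, room temperature).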

[1] = biological target: T2, bradykinin 1 receptor (B1R) of the rat (Rattus norvegicus, UniProt P97583); test: Functional investigation on the rat bradykinin 1 receptor (B1R), Ca2+ FLIPR assay in CHO K1 rB1R cells; format: cell-based; conditions: CHO-K1, B1R antagonism rat; test substance 10 μM; Ca2+ FLIPR, CHO K1 rB1R cells; read-out: B1R Ant. r [10 μM] % Inhibition
T2 construct: expressed in transfected cells; host or cells: CHO K1 cells
T2 sequence (P97583 1-337): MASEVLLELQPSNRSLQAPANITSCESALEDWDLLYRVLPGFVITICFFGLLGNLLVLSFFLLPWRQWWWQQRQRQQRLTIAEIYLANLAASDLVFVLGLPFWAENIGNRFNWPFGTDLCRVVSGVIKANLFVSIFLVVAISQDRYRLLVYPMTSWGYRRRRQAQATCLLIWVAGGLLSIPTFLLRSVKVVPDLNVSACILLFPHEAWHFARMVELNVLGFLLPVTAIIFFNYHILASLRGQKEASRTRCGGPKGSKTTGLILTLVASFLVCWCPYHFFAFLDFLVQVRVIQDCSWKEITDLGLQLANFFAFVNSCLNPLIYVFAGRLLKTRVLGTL
Summary of the method: (§1)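 Peak Ca2+-dependent fluorescence in B1R-transfected CHO K1 cells measures antagonism of an EC80 agonist challenge given 10-20 min after compound. Agonist is Lys-Des-Arg9-bradykinin for human, Des-Arg9-bradykinin for rat receptor.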

[2] = biological target: T3, human bradykinin 1 receptor (B1R) (Homo sapiens, UniProt P46663); test: Functional investigation on the human bradykinin 1 receptor (B1R), Ca2+ FLIPR assay in CHO K1 hB1R cells; format: cell-based; conditions: CHO-K1, B1R antagonism human; test substance 10 μM; Ca2+ FLIPR, CHO K1 hB1R cells; read-out: B1R Ant. h [10 μM] % Inhibition
T3 construct: expressed in transfected cells; host or cells: CHO K1 cells
T3 sequence (P46663 1-353): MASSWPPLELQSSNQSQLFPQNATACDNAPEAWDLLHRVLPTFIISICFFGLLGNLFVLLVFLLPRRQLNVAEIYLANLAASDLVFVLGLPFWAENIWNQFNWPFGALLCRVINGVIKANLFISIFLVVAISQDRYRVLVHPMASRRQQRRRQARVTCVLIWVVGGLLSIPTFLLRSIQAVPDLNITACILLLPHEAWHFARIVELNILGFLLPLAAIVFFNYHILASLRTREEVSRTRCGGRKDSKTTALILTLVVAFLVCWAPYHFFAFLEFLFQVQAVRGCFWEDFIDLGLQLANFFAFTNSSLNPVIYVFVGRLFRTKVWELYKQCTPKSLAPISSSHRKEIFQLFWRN
Summary of the method: as §1

Row | Compound | inhibition at 1 µM (human μ opiate receptor) [%] | inhibition at 10 µM [1] [%] | inhibition at 10 µM [2] [%]
1 | COc1cc(C)c(S(=O)(=O)N2CCCC(COCC(=O)NC3CCC(C(c4ccccc4)N4CCOCC4)CC3)C2)c(C)c1 (stereo not drawn) [Example 701, 2-((1-(4-methoxy-2,6-dimethylphenylsulfonyl)piperidin-3-yl)methoxy)-N-(4-(morpholino(phenyl)methyl)cyclohexyl)acetamide] | 2 | 49 | 16
2 | COc1cc(C)c(S(=O)(=O)N2CCCC(COCC(=O)NC3CCC(C(c4ccccc4)N4CCN(C)CC4)CC3)C2)c(C)c1 (stereo not drawn) [Example 702, 2-((1-(4-methoxy-2,6-dimethylphenylsulfonyl)piperidin-3-yl)methoxy)-N-(4-((4-methylpiperazin-1-yl)(phenyl)methyl)cyclohexyl)acetamide] | 19 | 74 | 70
3 | O=C(COCC1CCCN(S(=O)(=O)c2c(Cl)cc(Cl)cc2Cl)C1)NC1CCC(C(c2ccccc2)N2CCOCC2)CC1 (stereo not drawn) [Example 703, N-(4-(morpholino(phenyl)methyl)cyclohexyl)-2-((1-(2,4,6-trichlorophenylsulfonyl)piperidin-3-yl)methoxy)acetamide] | 19 | 37 | -4
4 | CN1CCN(C(c2ccccc2)C2CCC(NC(=O)COCCN(C)S(=O)(=O)c3ccc(Cl)cc3Cl)CC2)CC1 (stereo not drawn) [Example 704, 2-(2-(2,4-dichloro-N-methylphenylsulfonamido)ethoxy)-N-(4-((4-methylpiperazin-1-yl)(phenyl)methyl)cyclohexyl)acetamide] | 27 | 39 | 75
5 | CN(CCOCC(=O)NCC1CCC(C(c2ccccc2)N2CCOCC2)CC1)S(=O)(=O)c1ccc(Cl)cc1Cl (stereo not drawn) [Example 705, 2-(2-(2,4-dichloro-N-methylphenylsulfonamido)ethoxy)-N-((4-(morpholino(phenyl)methyl)cyclohexyl)methyl)acetamide] | 8 | -9 | 49
6 | CN(CCOCC(=O)NCC1CCC(C(c2ccccc2)N2CCOCC2)CC1)S(=O)(=O)c1c(Cl)cccc1Cl (stereo not drawn) [Example 706, 2-(2-(2,6-dichloro-N-methylphenylsulfonamido)ethoxy)-N-((4-(morpholino(phenyl)methyl)cyclohexyl)methyl)acetamide] | 7 | 52 | 77
7 | O=C(COC1CCCN(S(=O)(=O)c2c(Cl)cc(Cl)cc2Cl)C1)NCC1CCC(C(c2ccccc2)N2CCOCC2)CC1 (stereo not drawn) [Example 707, N-((4-(morpholino(phenyl)methyl)cyclohexyl)methyl)-2-(1-(2,4,6-trichlorophenylsulfonyl)piperidin-3-yloxy)acetamide] | 28 | 25 | 2
8 | COc1cc(C)c(S(=O)(=O)N2CCCC(OCC(=O)NC3CCC(C(c4ccccc4)N4CCN(C)CC4)CC3)C2)c(C)c1 (stereo not drawn) [Example 708, 2-(1-(4-methoxy-2,6-dimethylphenylsulfonyl)piperidin-3-yloxy)-N-(4-((4-methylpiperazin-1-yl)(phenyl)methyl)cyclohexyl)acetamide] | 29 | 91 | 100
9 | COc1cc(C)c(S(=O)(=O)N2CCCC2COCC(=O)NCC2CCC(C(c3ccccc3)N3CCOCC3)CC2)c(C)c1 (stereo not drawn) [Example 709, 2-((1-(4-methoxy-2,6-dimethylphenylsulfonyl)pyrrolidin-2-yl)methoxy)-N-((4-(morpholino(phenyl)methyl)cyclohexyl)methyl)acetamide] | 8 | 104 | 82
10 | O=C(COCC1CCCN1S(=O)(=O)c1c(Cl)cc(Cl)cc1Cl)NCC1CCC(C(c2ccccc2)N2CCOCC2)CC1 (stereo not drawn) [Example 710, N-((4-(morpholino(phenyl)methyl)cyclohexyl)methyl)-2-((1-(2,4,6-trichlorophenylsulfonyl)pyrrolidin-2-yl)methoxy)acetamide] | 24 | 92 | 42
11 | COc1cc(C)c(S(=O)(=O)N2CCCCC2COCC(=O)NCC2CCC(C(c3ccccc3)N3CCOCC3)CC2)c(C)c1 (stereo not drawn) [Example 711, 2-((1-(4-methoxy-2,6-dimethylphenylsulfonyl)piperidin-2-yl)methoxy)-N-((4-(morpholino(phenyl)methyl)cyclohexyl)methyl)acetamide] | 33 | 103 | 86
12 | O=C(COCC1CCCCN1S(=O)(=O)c1c(Cl)cc(Cl)cc1Cl)NCC1CCC(C(c2ccccc2)N2CCOCC2)CC1 (stereo not drawn) [Example 712, N-((4-(morpholino(phenyl)methyl)cyclohexyl)methyl)-2-((1-(2,4,6-trichlorophenylsulfonyl)piperidin-2-yl)methoxy)acetamide] | 40 | 100 | 46
13 | CN1CCN(C(c2ccccc2)C2CCC(NC(=O)COCCN(C)S(=O)(=O)c3c(Cl)cc(Cl)cc3Cl)CC2)CC1 (stereo not drawn) [Example 714, N-(4-((4-methylpiperazin-1-yl)(phenyl)methyl)cyclohexyl)-2-(2-(2,4,6-trichloro-N-methylphenylsulfonamido)ethoxy)acetamide] | 52 | 64 | 104
14 | CN(CCOCC(=O)NCC1CCC(C(CCc2ccccc2)N2CCOCC2)CC1)S(=O)(=O)c1c(Cl)cc(Cl)cc1Cl (stereo not drawn) [Example 715, N-((4-(1-morpholino-3-phenylpropyl)cyclohexyl)methyl)-2-(2-(2,4,6-trichloro-N-methylphenylsulfonamido)ethoxy)acetamide] | 10 | 24 | 55
15 | CN(CCOCC(=O)NCC1CCC(C(CCc2ccccc2)N2CCOCC2)CC1)S(=O)(=O)c1ccc(Cl)cc1Cl (stereo not drawn) [Example 716, 2-(2-(2,4-dichloro-N-methylphenylsulfonamido)ethoxy)-N-((4-(1-morpholino-3-phenylpropyl)cyclohexyl)methyl)acetamide] | 13 | 31 | 59
16 | CN(CCOCC(=O)NCC1CCC(C(CCc2ccccc2)N2CCCC2)CC1)S(=O)(=O)c1ccc(Cl)cc1Cl (stereo not drawn) [Example 717, 2-(2-(2,4-dichloro-N-methylphenylsulfonamido)ethoxy)-N-((4-(3-phenyl-1-(pyrrolidin-1-yl)propyl)cyclohexyl)methyl)acetamide] | 22 | 88 | 100
17 | COc1cc(C)c(S(=O)(=O)N(C)CCOCC(=O)NCC2CCC(C(c3ccccc3)N3CCOCC3)CC2)c(C)c1 (stereo not drawn) [Example 718, 2-(2-(4-methoxy-N,2,6-trimethylphenylsulfonamido)ethoxy)-N-((4-(morpholino(phenyl)methyl)cyclohexyl)methyl)acetamide] | 4 | 96 | 105
18 | COc1cc(C)c(S(=O)(=O)N(C)CCOCC(=O)NCC2CCC(C(CCc3ccccc3)N3CCOCC3)CC2)c(C)c1 (stereo not drawn) [Example 719, 2-(2-(4-methoxy-N,2,6-trimethylphenylsulfonamido)ethoxy)-N-((4-(1-morpholino-3-phenylpropyl)cyclohexyl)methyl)acetamide] | 6 | 101 | 103
19 | COc1cc(C)c(S(=O)(=O)N(C)CCOCC(=O)NCC2CCC(C(CCc3ccccc3)N3CCCC3)CC2)c(C)c1 (stereo not drawn) [Example 720, 2-(2-(4-methoxy-N,2,6-trimethylphenylsulfonamido)ethoxy)-N-((4-(3-phenyl-1-(pyrrolidin-1-yl)propyl)cyclohexyl)methyl)acetamide] | 26 | 101 | 101
20 | CN(CCOCC(=O)NCC1CCC(C(CCc2ccccc2)N2CCOCC2)CC1)S(=O)(=O)c1c(Cl)cccc1Cl (stereo not drawn) [Example 721, 2-(2-(2,6-dichloro-N-methylphenylsulfonamido)ethoxy)-N-((4-(1-morpholino-3-phenylpropyl)cyclohexyl)methyl)acetamide] | 7 | 57 | 94
